Test results as given in patent US20040127575A1, “Method for counteracting a pathologic change in the beta-adrenergic pathway” (priority 2002, published 2004).
“And” between values parts separate entries of the source, which are not always exact repeats. Identical values can stand only once. “Also recorded” adds a separate entry of the source.

How the values were obtained:
[1] = system: rat neonatal cardiomyocytes; test: cyclic AMP accumulation in rat neonatal cardiomyocytes (EIA); details: for attenuation of isoproterenol-stimulated cAMP accumulation: 1 μM isoproterenol, 200 nM antagonist; for β2AR response/AC activity (procaterol, forskolin): FIG. 11
Protocol: Ventricular cardiomyocytes were isolated from neonatal rat hearts as described before and seeded to fibronectin coated plates in DMEM21 and Coon's F12 with 10% FBS. […] Myocytes were used within 24 to 72 hr after isolation.
For pretreatment, cells were washed once in serum-free media (SFM) supplemented with 0.1% bovine serum albumin (BSA) and incubated with TGF-β1 in the presence or absence of inhibitors in the same media. Control cells were treated with the appropriate vehicles.
HBSMC or rat neonatal cardiomyocytes were subcultured in 96-well or 24-well plates for 24 hr to 48 hr, then treated with TGFβ1 (1-2ng/ml), Activin A (10-50 ng/ml) and other drugs in 1% serum-containing or serum-free media. After 24 hr incubation, phosphodiesterase inhibitor, IBMX (200 uM) was added to fresh media for 10-15 min before exposure to either 10 uM procaterol, 1 uM isoproterenol, or 10-50 uM forskolin for 10 min to stimulate cAMP production. The stimulation medium was removed and cells were lysed in 0.1M HCl. cAMP levels were measured using Direct cAMP EIA kit from Assay Designs, Inc. following manufacture's instruction.
Subsequent to treatment with TGF-β1 (1-2 ng/ml), cardiomyocytes (˜1×10^5 cells/well in 24-well plates) were incubated with phosphodiesterase inhibitor, IBMX (200 μM) for 30 min in SFM. Cells were then exposed to either procaterol (10 μM), forskolin (10-50 μM), or isoproterenol (Iso, 1 μM) for 10 min to allow for accumulation of cAMP. […] The incubations were terminated by removal of the medium. Cells in each well were lysed in 150 μl of 0.1 M HCl at room temperature (RT) for 30 min. Intracellular cAMP contents were measured using the Direct cAMP EIA kit following manufacture's instruction, and the cAMP levels were calculated in pmol/ml.

[2] = system: rat neonatal cardiomyocytes; test: real-time RT-PCR of mRNA levels in cardiomyocytes; details: for β2-AR mRNA levels in cardiomyocytes: 24 hr pretreatment for TGF-β1
Excerpt: Total RNA was extracted from cells using Qiagen's RNAeasy kit (Valencia, Calif.), and analyzed by quantitative real time RT-PCR [Gibson UEM, Heid C A and Williams P M. Genome Res. 6, 995-1001, 1996] using an ABI Prism™ 7700 Sequence Detection System (PE Applied Biosystems, Foster City, Calif.). This system is based on the ability of the 5′nuclease activity of Taq polymerase to cleave a nonextendable dual-labeled fluorogenic hybridization probe during the extension phase of PCR. The probe is labeled with reporter fluorescent dye at the 5′ end and a quencher fluorescent dye (6-carboxy-tetramethyl-rhodamine) at the 3′ end. When the probe is intact, reporter emission is quenched by the physical proximity of the reporter and quencher fluorescent dyes. However, during the extension phase of PCR, the nucleolytic activity of the DNA polymerase cleaves the hybridization probe and releases the reporter dye from the probe with a concomitant increase in reporter fluorescence.
Sequence specific primers and probes were designed using Primer Express software (PE Applied Biosystems, Foster City, Calif.). […] Primers were used at a concentration of 200 nM and probes at 100 nM in each reaction. Multiscribe reverse transcriptase and AmpliTaq Gold polymerase (PE Applied Biosystems, Foster City Calif.) were used in all RT-PCR reactions and PCR reactions. RT-PCR parameters were as follows: 48° C. for 30 min (reverse transcription), 95° C. for 10 min (AmpliTaq Gold activation) and 40 cycles of 95° C. for 15 sec, 60° C. for 1 min. Relative quantitation of β1-AR, β2-AR, and 18S mRNA were calculated using the comparative threshold cycle number for each sample fitted to a five point standard curve (ABI Prism 7700 User Bulletin #2, PE Applied Biosystems, Foster City Calif.). Expression levels were normalized to 18S rRNA.

TGF-β mediated fibrosis = TGF-β mediated fibrosis in in vitro and in vivo models; details: several in vitro and in vivo models
Smad2, Smad3 = test: Western blot of phospho-Smad2 and Smad3 in hBSMC; assay type: cell-based, human
Protocol: (§1) After incubation with TGFβ1 and other drugs, cells were washed once with 1×PBS and lysed in 0.2 ml/plate cold RIPA buffer (phosphate buffered saline, pH 7.4, 1% NP-40, 0.5% sodium deoxycholate, 0.1% sodium dodecylsulfate, 1 mM sodium orthovanadate, 1 mM NaF, 1 mM β-glycerolphosphate, 1 uM okadaic acid, 10 ng/ml aprotinin, 10 ng/ml leupeptin, 1 mM phenymethylsulfonyl fluoride). Samples were clarified by centrifugation (4° C., 10 min, 15,000×g), and protein concentration was determined by BCA method (PIRCE). Lysates with equal amounts of total cell protein (15-20 ug) were separated on 10% SDS-NuPAGE (Invitrogen) and then transferred to nitrocellulose membrane. The membrane was blocked in 3% nonfat dry milk/TBST (10 mM Tris-HCl pH 7.5, 150 mM NaCl, 0.1% Tween 20) for 1 hr, and probed with anti-Smad2/3 mouse monoclonal antibody [Transduction Laboratories (S66220); 1:500 dilution in 3% milk/TBST], or anti-phospho-Smad2 (Ser465/467) rabbit antiserum [Cell Signaling (3101S); 1:500 dilution in 3% BSA/TBST] at 4° C. overnight. Donkey anti-mouse HRP [Santa Cruz (SC-2314); 1:2000 dilution] or donkey anti-rabbit HRP [Santa Cruz (SC-23130; 1:2000 dilution] were used as secondary antibody. Immunoreactivity was detected with chemiluminescence reagent (Santa Cruz) and visualized by exposing to x-ray film (Kodak).

[3] = system: human bronchial smooth muscle cells (hBSMC); test: cyclic AMP accumulation in hBSMC (EIA); assay type: cell-based
Protocol: Human bronchial smooth muscle cells (hBSMC) were purchased from Clonetics (BioWhittaker, Inc., Walkersville, Md.), and maintained in SmGM-2 containing 5% fetal bovine serum (Clonetics) at 37° C./5% CO2. All experiments were performed on cells at passages from 6 to 8. For pretreatment, cells were incubated in 1% serum-containing media or serum-free media in the presence or absence of TGFβ1, Activin A and other drugs. Control cells were treated with the appropriate vehicles.

TGFβ-RII receptor = TGFβ-RII receptor (Homo sapiens, UniProt P37173); test: specificity against TGFβ-RII receptor; details: relative to TGFβ-RI kinase
Smad2/3 and Smad4 = test: immunofluorescence staining of Smad nuclear translocation in cardiomyocytes
Protocol: The nuclear translocation of Smad proteins in response to TGF-β1 was determined by immunofluorescence staining with monoclonal anti-Smad2/3 antibody (BD Transduction Labarotories) and anti-Smad4 antibody (sc-7966) (Santa Cruz Biotechnology). Briefly, myocytes cultured on Lab-Tek chamber slides (Nalge Nunc International, Naperville, Ill.) coated with fibronectin and gelatin were fixed with 4% paraformaldehyde in PBS for 5 min, then penetrated with 0.1% saponin/1% normal goat serum (NGS) in PBS for 15 min. After blocking nonspecific binding with 5% NGS/0.05% saponin in PBS for 15 min, the slides were incubated with primary antibody in 1% NGS in PBS at 4° C. overnight. After another washing and blocking, slides were incubated with a biotinylated anti-mouse antibody for 30 min, followed by fluorescein isothiocyanate (FITC)-conjugated-avidin (Vector, Burlingame, Calif.) for 30 min. Slides were dried and mounted in Vectashield (Vector). Samples were analyzed by fluorescence microscopy.

[4] = system: panel of related protein kinases; test: panel of related protein kinases; details: relative to TGFβ-RI kinase
Smad2 = test: Western blot of Smad2 phosphorylation in cardiomyocytes
Protocol: as §1
The binding of primary antibodies was followed by incubation for 1 hour at RT with the secondary horseradish peroxidase (HRP) conjugated goat anti-mouse or goat anti-rabbit antibody (Santa Cruz Biotechnology). Immunoreactivity was detected with chemiluminescence reagents and visualized by exposing to x-ray film (Kodak).

[5] = system: β2-AR receptor binding sites; test: radioligand binding in cardiomyocytes; assay type: cell-based, rat
Protocol: The radioligand binding assay was performed as described in Example 1. To define the nonspecific binding to β2-AR, 50 nM CGP-20712A were used.
Membranes were then prepared and binding of 100 pm [^125]-CYP was measured for 2 hours at 23° C. using 8 μg membrane protein, and expressed as fmol/mg protein. Binding in the presence of 100 nM CGP-20712A was defined as binding to β2-AR, while binding in the presence of 100 μM propranolol was defined as non-specific binding. Subtraction of β2-AR binding from total binding was defined as β1-AR binding. The results are shown in FIG. 25 (p<0.05 vs. vehicle).

[6] = system: β2-adrenergic receptors on cell surface; test: radioligand binding with [3H]CGP-12177 on intact hBSMC; assay type: cell-based, human; details: TGFβ1 exposure
Protocol: The number of β2-adrenergic receptors on cell surface was determined by radioligand binding using hydrophilic, membrane-impermeable β-adrenergic antagonist [^3H]CGP-12177. Intact hBSMCs in 10 cm dish were preincubated with 5 nM [^3H]-CGP 12177 in the presence or absence of 20 uM propranolol (to define the amount of nonspecific binding) in SmBM for 1 hour at 37° C. with very gentle shaking. Cells were washed 3 times with ice-cold 1×PBS containing 0.1% Tween-20 (binding buffer) and 3 more times with ice-cold 1×PBS. 400 μl of RIPA buffer containing protease inhibitors was added to the plates and cells were scraped off the plates. Cell lysates were collected and protein concentrations were determined by BCA method (PIERCE). The radioligand bound to the whole cell was quantified by liquid scintillation counter and normalized to the protein concentration.

β2AR mRNA = test: real-time quantitative PCR of β2AR mRNA in hBSMC; assay type: cell-based, human; details: TGFβ1 exposure
Excerpt: Expression levels were normalized to 18S rRNA.

TGFβ-RII receptor, sequence (P37173 23-567): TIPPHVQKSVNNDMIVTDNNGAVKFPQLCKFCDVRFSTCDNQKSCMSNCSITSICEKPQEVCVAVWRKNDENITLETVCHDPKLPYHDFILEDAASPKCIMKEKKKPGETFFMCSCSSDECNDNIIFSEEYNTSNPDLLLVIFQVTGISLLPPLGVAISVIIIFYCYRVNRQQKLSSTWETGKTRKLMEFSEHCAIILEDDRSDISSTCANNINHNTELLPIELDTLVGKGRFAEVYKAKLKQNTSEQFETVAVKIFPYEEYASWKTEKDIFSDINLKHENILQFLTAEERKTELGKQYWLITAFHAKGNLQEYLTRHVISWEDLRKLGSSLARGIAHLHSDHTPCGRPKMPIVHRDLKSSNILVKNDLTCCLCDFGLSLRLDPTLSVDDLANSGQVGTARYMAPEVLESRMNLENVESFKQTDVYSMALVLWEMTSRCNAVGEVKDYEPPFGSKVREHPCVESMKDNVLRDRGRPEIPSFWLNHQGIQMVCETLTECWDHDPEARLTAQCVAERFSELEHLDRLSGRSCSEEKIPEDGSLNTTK

For `Cn1cc(C(F)(F)F)nc1-c1ccc(OCC(O)CNCCOc2ccc(O)c(C(N)=O)c2)cc1` (centres unmarked) [CGP-20712A, reference compound], the “attenuation of isoproterenol-stimulated cAMP accumulation” value [1] was about 75%.

With `Fc1ccc(Cl)cc1-c1nc(Nc2ccncc2)c2nccnc2n1` [Compound No. 79] the “effect on TGF-β1 induced down-regulation of β2-AR mRNA” value ([2]; 5 ng/ml TGF-β1, 24 hr, dose-dependent) was “reversed”, the “effect on activin-induced down-regulation of β2AR mRNA” value ([2]; FIG. 10) was “prevented” and the “effect on decreased AC5 and AC6 mRNA levels in TGF-β1 treated cardiomyocytes” value ([2]; dose-dependent) was “inhibited”. The “effect on TGF-β1 induced down-regulation of Smad3 mRNA” value ([2]; dose-dependent, within 24 hr) was “blocked”, the “mRNA levels of β2-AR in TGFβ1 treated cells” value ([2]; high doses (400-1000 nM)) was “higher than that in control cells” and the “effect on TGF-β mediated fibrosis” value (TGF-β mediated fibrosis) was “able to block”. For the same molecule, the “effect on TGFβ1-induced Smad2 phosphorylation and Smad3 down-regulation in hBSMC” value (Smad2, Smad3; FIG. 13) was “blocks”, the “effect on TGFβ1-induced loss of adrenergic responsiveness in hBSMC” value ([3]; FIG. 4) was “prevents” and the “specificity against TGFβ-RII receptor” value (TGFβ-RII receptor) was over 100 fold. For the same molecule, the “effect on TGF-β1 induced Smad2/3 and Smad4 translocation into the nucleus” value (Smad2/3 and Smad4; 400 nM) was “completely abolished”, the “specificity over members of a panel of related protein kinases” value [4] was “at least 20 fold” and the “effect on TGF-β1 induced Smad2 phosphorylation/activation” value (Smad2; pre-incubation, Compound No. 79 at 400 nM, 1 hr and 24 hr) was “significantly blocked”. The “basal phosphorylation of Smad2” value (Smad2; resting cardiomyocytes) was “blocked”, the “effect on TGFβ1-induced loss of β2AR response and AC activity” value ([1]; Example 1, FIG. 9) was “prevents” and the “basal cAMP levels in cardiomyocytes” value ([1]; higher concentration) was “increased”. For the same molecule, the “isoproterenol or forskolin induced cAMP accumulation in TGF-β1 treated cardiomyocytes” value ([1]; pre-incubation, Compound No. 79 200 nM) was “preserved”.

In the case of `Cc1ccc(OCC(O)C(C)NC(C)C)c2c1CCC2` (centres unmarked) [ICI 118, 551, reference compound], the “attenuation of isoproterenol-stimulated cAMP accumulation” value [1] is reported as about 25%.

With `N#CC(=C(/N)Sc1ccccc1N)/C(C#N)=C(\N)Sc1ccccc1N` [U0126, reference compound] the “β2-AR mediated (procaterol stimulated) cAMP accumulation after 24 hr TGF-β1 exposure, compared to vehicle” value ([1]; Compound No. 79 200 nM, p38 inhibitor 0.5 μM, U-0126 5 μM, JNK inhibitor I 5 μM, TGF-β1 1 ng/ml) was “No significant effects; also recorded: did not affect”.

For `CCC(NC(C)C)C(O)c1ccc(O)c2[nH]c(=O)ccc12` (centres unmarked) [procaterol, reference compound], the “cAMP accumulation by agonist” value ([1]; 10 μM procaterol) was “substantially increased”.

With “TGF-β1: Human recombinant transforming growth factor-β1 from R&D System” the “Smad7 mRNA in cardiomyocytes” value [2] was “up-regulated”, the “β1-AR mRNA levels in cardiomyocytes” value [2] was “did not significantly alter” and the “β2-AR mRNA levels in cardiomyocytes” value [2] was “decreased β2-AR mRNA levels dramatically”. The “earliest time of suppression of β2-AR mRNA” value ([2]; after treatment) was 1 h, the “expression of βARK1, Gsα, Giα-1, Giα-3” value ([2]; message or protein levels) was “did not alter” and the “mRNA levels of AC5 and AC6” value ([2]; time-dependent) was “significant reduction”. For the same molecule, the “Smad3 mRNA in cardiomyocytes” value ([2]; within 24 hr) was “down-regulated”, the “Smad2 phosphorylation in hBSMC” value (Smad2, Smad3) was “induces” and the “Smad3 expression in hBSMC” value (Smad2, Smad3) was “down-regulated”. The “time course of loss of β2AR response (procaterol-induced cAMP) in hBSMC” value ([3]; more profound at 24 hr or later) was “after 12 hr”, the “time course of effect on AC activity (forskolin-induced cAMP) in hBSMC” value ([3]; to a lesser extent) was “only observed 24 hr later” and the “β2-AR receptor binding sites in cardiomyocytes” value [5] was “trend to decrease”. For the same molecule, the “Smad2/3 and Smad4 fluorescence staining in the nucleus” value (Smad2/3 and Smad4; stimulation for 1 hr) was “dramatically increased”, the “βAR binding sites on hBSMC” value [6] was “reduces” and the “β2AR mRNA in hBSMC” value (β2AR mRNA) was “significantly reduces”. The “time of peak serine phosphorylation of Smad2” value (Smad2; maintained for 24 hr) was 1 h, the “reduction in procaterol-stimulated cAMP accumulation” value ([1]; TGF-β1 1 ng/ml pre-treatment 24 hr, 10 μM procaterol, maximal effect) was 59±5.2% and ~60% and the “cAMP accumulation stimulated by forskolin” value ([1]; TGF-β1 exposure, 25 μM forskolin) was “decreased”. The “decrease of cAMP accumulation when β2-ARs selectively stimulated by isoproterenol in the presence of CGP-20712A” value ([1]; TGF-β1 pretreatment 24 hr) was about 65% and the “reduction in β1-AR mediated cAMP accumulation (isoproterenol in the presence of ICI 118, 551)” value ([1]; TGF-β1 pretreatment 24 hr) was 16.5±3.1%.

B1: activin A: Activin A obtained from R&D System (protein, UniProt P08476 311-426, looked up)
Inhibin beta A chain: GLECDGKVNICCKKQFFVSFKDIGWNDWIIAPSGYHANYCEGECPSHIAGTSGSSLSFHSTVINHYRMRGHSPFANLKSCCVPTKLRPMSMLYYDDGQNIIKKDIQNMIVEECGCS
With B1 the “β2-AR mRNA levels in cardiomyocytes” value [2] was “down-regulated”, the “βAR response and AC activity in hBSMC” value ([3]; higher concentration) was “causes loss of βAR response as well as reduced AC activity” and the “β2AR response/AC activity (procaterol, forskolin)” value [1] was “induces loss”.

B2: IL-1β: IL-1β, cytokine applied to rat cardiomyocytes (protein, UniProt Q63264 117-268, looked up)
Interleukin-1 beta: VPIRQLHCRLRDEQQKCLVLSDPCELKALHLNGQNISQQVVFSMSFVQGETSNDKIPVALGLKGLNLYLSCVMKDGTPTLQLESVDPKQYPKKKMEKRFVFNKIEVKTKVEFESAQFPNWYISTSQAEHRPVFLGNSNGRDIVDFTMEPVSS
B2 was tested, and the “β2AR response/AC activity (procaterol, forskolin)” value [1] was “induces loss”.
